# Experimental data reported in patent publication US9637496B2, “Substituted 7-azabicycles and their use as orexin receptor modulators” (priority 2013, dated 2017).
# Like-named read-outs stand apart in the source and are kept apart here.
# Key:
# rat orexin 1 receptor = rat orexin 1 receptor (Rattus norvegicus (Rat), UniProt P56718); assay: Rat orexin 1 receptor radioligand binding (competitive binding, HEK293 membranes)
# human orexin 1 receptor = human orexin 1 receptor (Homo sapiens (Human), UniProt O43613); assay: Human orexin 1 receptor radioligand binding (competitive binding, CHO membranes)
# Sequence of human orexin 1 receptor (O43613 whole entry): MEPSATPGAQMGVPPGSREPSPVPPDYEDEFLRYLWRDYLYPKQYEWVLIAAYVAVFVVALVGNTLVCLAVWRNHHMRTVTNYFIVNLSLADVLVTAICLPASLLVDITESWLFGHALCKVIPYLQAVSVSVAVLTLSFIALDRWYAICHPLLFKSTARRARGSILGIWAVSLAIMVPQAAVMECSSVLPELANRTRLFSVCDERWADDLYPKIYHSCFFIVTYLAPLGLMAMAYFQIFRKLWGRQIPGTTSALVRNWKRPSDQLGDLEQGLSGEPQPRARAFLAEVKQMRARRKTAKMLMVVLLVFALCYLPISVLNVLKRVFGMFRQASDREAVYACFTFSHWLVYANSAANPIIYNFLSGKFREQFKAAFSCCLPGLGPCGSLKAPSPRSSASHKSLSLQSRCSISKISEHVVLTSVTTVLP
# human orexin 2 receptor = human orexin 2 receptor (Homo sapiens (Human), UniProt O43614); assay: Human orexin 2 receptor radioligand binding ([3H]-EMPA competition, HEK293 membranes)
# Sequence of human orexin 2 receptor (O43614 whole entry): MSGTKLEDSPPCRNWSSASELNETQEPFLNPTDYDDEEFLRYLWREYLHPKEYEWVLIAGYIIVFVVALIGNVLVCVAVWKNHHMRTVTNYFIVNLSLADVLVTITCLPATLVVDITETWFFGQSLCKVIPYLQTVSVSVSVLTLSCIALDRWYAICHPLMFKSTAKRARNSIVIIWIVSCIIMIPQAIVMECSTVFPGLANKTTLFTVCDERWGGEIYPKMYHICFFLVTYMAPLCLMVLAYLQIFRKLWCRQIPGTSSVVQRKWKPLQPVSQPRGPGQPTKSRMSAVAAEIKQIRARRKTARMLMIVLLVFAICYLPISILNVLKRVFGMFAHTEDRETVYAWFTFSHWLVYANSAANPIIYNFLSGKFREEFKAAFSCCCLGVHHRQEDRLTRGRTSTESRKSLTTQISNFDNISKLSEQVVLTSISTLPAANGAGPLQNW
# [1] = human orexin 2 receptor, Table 2, averages from between 2-20 runs, read-out: hOX2 Ki
# [2] = rat orexin 1 receptor, Table 2, averages from between 2-20 runs, read-out: rOX1 Ki
# [3] = human orexin 1 receptor, Table 2, averages from between 2-20 runs, read-out: hOX1 Ki
# [4] = human orexin 1 receptor, Table 2, averages of 2-20 runs, read-out: hOX1 Ki
# Sequence of rat orexin 1 receptor (P56718 whole entry): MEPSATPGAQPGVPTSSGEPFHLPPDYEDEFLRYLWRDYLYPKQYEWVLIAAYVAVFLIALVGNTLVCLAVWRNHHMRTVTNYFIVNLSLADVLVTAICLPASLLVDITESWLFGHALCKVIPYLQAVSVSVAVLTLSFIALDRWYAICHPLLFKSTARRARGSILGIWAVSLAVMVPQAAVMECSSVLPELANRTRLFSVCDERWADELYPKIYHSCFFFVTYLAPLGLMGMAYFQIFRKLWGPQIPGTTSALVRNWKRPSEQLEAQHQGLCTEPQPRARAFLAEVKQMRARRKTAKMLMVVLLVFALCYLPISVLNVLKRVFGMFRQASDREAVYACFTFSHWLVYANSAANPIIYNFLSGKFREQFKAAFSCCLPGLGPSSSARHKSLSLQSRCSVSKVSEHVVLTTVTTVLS
compound,measurement,setting,value
"Cc1cccc(C(=O)N2[C@@H]3CC[C@H]2[C@H](Nc2cnc(C(F)(F)F)cn2)C3)c1-c1ncc(F)cn1 [Example 399, (2-(5-fluoropyrimidin-2-yl)-3-methylphenyl)((1S,2R,4R)-2-((5-(trifluoromethyl)pyrazin-2-yl)amino)-7-azabicyclo[2.2.1]heptan-7-yl)methanone]",Ki,rat orexin 1 receptor; read-out: rOX1 Ki,10 nM
same,Ki,human orexin 1 receptor; read-out: hOX1 Ki,9 nM
same,Ki,human orexin 2 receptor; [1],300 nM
"O=C(c1cccc(F)c1-c1ncccn1)N1[C@@H]2CC[C@H]1[C@H](Nc1ncc(C(F)(F)F)cc1F)C2 [Example 382, (3-fluoro-2-(pyrimidin-2-yl)phenyl)((1S,2R,4R)-2-((3-fluoro-5-(trifluoromethyl)pyridin-2-yl)amino)-7-azabicyclo[2.2.1]heptan-7-yl)methanone]",Ki,rat orexin 1 receptor; [2],18 nM
same,Ki,human orexin 1 receptor; [3],15 nM
same,Ki,human orexin 2 receptor; [1],1100 nM
"Cc1cccc(C(=O)N2[C@@H]3CC[C@H]2[C@H](Nc2ccc(C(F)(F)F)cn2)C3)c1-c1ncccn1 [Example 299, (3-methyl-2-(pyrimidin-2-yl)phenyl)((1S,2R,4R)-2-((5-(trifluoromethyl)pyridin-2-yl)amino)-7-azabicyclo[2.2.1]heptan-7-yl)methanone]",Ki,rat orexin 1 receptor; [2],16 nM
same,Ki,human orexin 1 receptor; [3],7 nM
same,Ki,human orexin 2 receptor; [1],234 nM
"O=C(c1ccccc1-c1ncccn1)N1[C@@H]2CC[C@H]1[C@H](Nc1ncc(C(F)(F)F)cn1)C2 [Example 417, (2-(pyrimidin-2-yl)phenyl)((1S,2R,4R)-2-((5-(trifluoromethyl)pyrimidin-2-yl)amino)-7-azabicyclo[2.2.1]heptan-7-yl)methanone]",Ki,rat orexin 1 receptor; read-out: rOX1 Ki,52 nM
same,Ki,human orexin 1 receptor; read-out: hOX1 Ki,41 nM
same,Ki,human orexin 2 receptor; [1],1900 nM
O=C(c1cccc(F)c1-n1nccn1)N1C2CCC1C(Oc1ccc(Br)cn1)C2 (racemic) [Example 440],Ki,rat orexin 1 receptor; [2],118 nM
same,Ki,human orexin 1 receptor; [3],100 nM
same,Ki,human orexin 2 receptor; [1],6000 nM
"O=C(c1c(F)cccc1-c1ncccn1)N1C2CCC1C(COc1ccc(F)cn1)C2 (racemic) [Example 31, (±)-(2-fluoro-6-(pyrimidin-2-yl)phenyl)(2-(((5-fluoropyridin-2-yl)oxy)methyl)-7-azabicyclo[2.2.1]heptan-7-yl)methanone]",Ki,human orexin 1 receptor,43 nM
"O=C(c1c(F)cccc1-c1ncccn1)N1[C@@H]2CC[C@H]1[C@H](Nc1ccc(C(F)(F)F)cn1)C2 [Example 372, (2-fluoro-6-(pyrimidin-2-yl)phenyl)((1S,2R,4R)-2-((5-(trifluoromethyl)pyridin-2-yl)amino)-7-azabicyclo[2.2.1]heptan-7-yl)methanone]",Ki,rat orexin 1 receptor; read-out: rOX1 Ki,19 nM
same,Ki,human orexin 1 receptor; read-out: hOX1 Ki,13 nM
same,Ki,human orexin 2 receptor; [1],420 nM
"O=C(c1ccccc1-c1ncc(F)cn1)N1[C@@H]2CC[C@H]1[C@H](Nc1ncc(C(F)(F)F)cc1F)C2 [Example 460, ((1S,2R,4R)-2-((3-fluoro-5-(trifluoromethyl)pyridin-2-yl)amino)-7-azabicyclo[2.2.1]heptan-7-yl)(2-(5-fluoropyrimidin-2-yl)phenyl)methanone]",Ki,"rat orexin 1 receptor; Table 2, further testing, averages from 2-20 runs, read-out: rOX1 Ki",57 nM
same,Ki,"human orexin 1 receptor; Table 2, further testing, averages from 2-20 runs, read-out: hOX1 Ki",41 nM
same,Ki,"human orexin 2 receptor; Table 2, further testing, averages from 2-20 runs, read-out: hOX2 Ki",1300 nM
O=C(c1cccc(F)c1-c1ncccn1)N1C2CCC1C(Oc1ccc(C(F)(F)F)cn1)C2 (racemic) [Example 429],Ki,rat orexin 1 receptor,77 nM
same,Ki,human orexin 1 receptor,120 nM
same,Ki,human orexin 2 receptor; [1],6300 nM
"Cc1cnc(C(=O)N2[C@@H]3CC[C@H]2[C@H](Nc2cnc(C(F)(F)F)cn2)C3)c(-c2ncccn2)c1 [Example 405, (5-methyl-3-(pyrimidin-2-yl)pyridin-2-yl)((1S,2R,4R)-2-((5-(trifluoromethyl)pyrazin-2-yl)amino)-7-azabicyclo[2.2.1]heptan-7-yl)methanone]",Ki,rat orexin 1 receptor; read-out: rOX1 Ki,53 nM
same,Ki,human orexin 1 receptor; read-out: hOX1 Ki,59 nM
same,Ki,human orexin 2 receptor; read-out: hOX2 Ki,> 10000 nM
O=C(c1cccc(F)c1-n1nccn1)N1C2CCC1C(Oc1ccc(C(F)(F)F)cn1)C2 (racemic) [Example 423],Ki,rat orexin 1 receptor,202 nM
same,Ki,human orexin 1 receptor,174 nM
same,Ki,human orexin 2 receptor,4870 nM
"Cc1cccc(C(=O)N2[C@@H]3CC[C@H]2[C@H](Nc2ccc(C#N)cn2)C3)c1-c1ncccn1 [Example 393, 6-(((1S,2R,4R)-7-(3-methyl-2-(pyrimidin-2-yl)benzoyl)-7-azabicyclo[2.2.1]heptan-2-yl)amino)nicotinonitrile]",Ki,rat orexin 1 receptor; [2],500 nM
same,Ki,human orexin 1 receptor; [3],323 nM
same,Ki,human orexin 2 receptor; [1],8300 nM
"O=C(c1c(F)cccc1-c1ncccn1)N1[C@@H]2CC[C@H]1[C@H](Nc1ncc(C(F)(F)F)cn1)C2 [Example 416, (2-fluoro-6-(pyrimidin-2-yl)phenyl)((1S,2R,4R)-2-((5-(trifluoromethyl)pyrimidin-2-yl)amino)-7-azabicyclo[2.2.1]heptan-7-yl)methanone]",Ki,rat orexin 1 receptor; [2],138 nM
same,Ki,human orexin 1 receptor; [3],85 nM
same,Ki,human orexin 2 receptor; [1],2100 nM
"O=C(c1cc(F)ccc1-n1nccn1)N1C2CCC1C(COc1ccc(F)cn1)C2 (racemic) [Example 30, (±)-(5-fluoro-2-(2H-1,2,3-triazol-2-yl)phenyl)(2-(((5-fluoropyridin-2-yl)oxy)methyl)-7-azabicyclo[2.2.1]heptan-7-yl)methanone]",Ki,human orexin 1 receptor,60 nM
same,Ki,"human orexin 2 receptor; human orexin 2 receptor, Table 2, averages of 2-20 runs, read-out: hOX2 Ki",160 nM
"O=C(c1cccc(F)c1-c1ncccn1)N1[C@H]2CC[C@@H]1[C@@H](Nc1cnc(C(F)(F)F)cn1)C2 [Example 297, (3-fluoro-2-(pyrimidin-2-yl)phenyl)((1R,2S,4S)-2-((5-(trifluoromethyl)pyrazin-2-yl)amino)-7-azabicyclo[2.2.1]heptan-7-yl)methanone]",Ki,rat orexin 1 receptor,402 nM
same,Ki,human orexin 1 receptor; [3],> 10000 nM
"CCOc1ncc2ccccc2c1C(=O)N1C2CCC1C(COc1ccccn1)C2 (racemic) [Example 83, (±)-(3-ethoxyisoquinolin-4-yl)(2-((pyridin-2-yloxy)methyl)-7-azabicyclo[2.2.1]heptan-7-yl)methanone]",Ki,human orexin 1 receptor,13 nM
"O=C(c1ccccc1-n1cccn1)N1C2CCC1C(COc1ccc(F)cn1)C2 (racemic) [Example 26, (±)-2-(1H-pyrazol-1-yl)phenyl)(2-(((5-fluoropyridin-2-yl)oxy)methyl)-7-azabicyclo[2.2.1]heptan-7-yl)methanone]",Ki,human orexin 1 receptor; [4],134 nM
"Cc1cc(C)nc(OCC2CC3CCC2N3C(=O)c2ccccc2-c2cccs2)n1 (racemic) [Example 46, (±)-(2-(((4,6-dimethylpyrimidin-2-yl)oxy)methyl)-7-azabicyclo[2.2.1]heptan-7-yl)(2-(thiophen-2-yl)phenyl)methanone]",Ki,human orexin 1 receptor; [4],111 nM
"Cc1ccc(-c2ncccn2)c(C(=O)N2[C@@H]3CC[C@H]2[C@H](Nc2ccc(C(F)(F)F)cn2)C3)n1 [Example 379, (6-methyl-3-(pyrimidin-2-yl)pyridin-2-yl)((1S,2R,4R)-2-((5-(trifluoromethyl)pyridin-2-yl)amino)-7-azabicyclo[2.2.1]heptan-7-yl)methanone]",Ki,rat orexin 1 receptor; read-out: rOX1 Ki,25 nM
same,Ki,human orexin 1 receptor; read-out: hOX1 Ki,24 nM
"O=C(c1cccc(F)c1-c1ncccn1)N1C2CCC1C(COc1ccc(F)cn1)C2 (racemic) [Example 124, (±)-(3-fluoro-2-(pyrimidin-2-yl)phenyl)(-2-(((5-fluoropyridin-2-yl)oxy)methyl)-7-azabicyclo[2.2.1]heptan-7-yl)methanone]",Ki,human orexin 1 receptor,75 nM
"O=C(c1cccc(F)c1-n1nccn1)N1C2CCC1C(COc1nccc(C(F)(F)F)n1)C2 (racemic) [Example 134, (±)-(3-fluoro-2-(2H-1,2,3-triazol-2-yl)phenyl)(2-(((4-(trifluoromethyl)pyrimidin-2-yl)oxy)methyl)-7-azabicyclo[2.2.1]heptan-7-yl)methanone]",Ki,rat orexin 1 receptor,1500 nM
same,Ki,human orexin 1 receptor,690 nM
